# Assay results: patent publication US6962713B2, “Spot-on formulations for combating parasites” (Merial, priority 1919, dated 2005)
# Several values for one entry are separate records, joined by “and”; a condition that tells them apart may be missing. Equal values may be shown once. Marks after values point to notes of the source that are not given here.
# Tests used:
# [1] = Plasma kinetics of ivermectin after topical (spot-on) application 250 μg.kg in combination with fipronil to dogs; type: in vivo, dog; conditions: spot-on 0.25% ivermectin + 10% fipronil, 5 dogs
# Procedure: This study was undertaken in order to assess the pharmacokinetic behaviour of ivermectin and fipronil after a topical (spot-on) application of ivermectin in combination with fipronil to the dog.
# Five male Beagle dogs were applied a spot-on formulation combining ivermectin and fipronil at a dose of 0.1 ml.kg^−1, i.e. 250 μg.kg and 10 mg.kg^−1 of ivermectin and fipronil, respectively. Blood samples were collected at intervals up to 28 days post-treatment. The determination of ivermectin in dog plasma was carried out by HPLC, using fluorescence detection, with a limit of quantification of 100 pg.ml^−1. The determination of fipronil and its sulfone metabolite (RM1602) was carried out by HPLC with UV detection with a limit of quantification of 20 ng.ml^−1 for fipronil and RM1602.
# The formulation tested was as follows: […]
# [2] = Plasma kinetics of ivermectin after spot-on application at different doses in combination with fipronil to dogs; type: in vivo, dog; conditions: for Cmax, Mean: spot-on with fipronil 10 mg.kg^−1, dogs, mean of 3; for t½, Mean: harmonic mean
# Procedure: This study was undertaken in order to assess the linearity of the percutaneous passage of ivermectin after spot-on application of different doses of ivermectin (100, 250, 500 and 1000 μg.kg^−1) in combination with fipronil (10 mg.kg^−1) to the dog. Furthermore, the possibility of control both heartworms and gastro-intestinal nematodes was evaluated.
# Twelve male Beagle dogs (allocated into 4 groups of 3 animals were applied spot-on formulations combining ivermectin (0.1%, 0.25%, 0.5% and 1%) and fipronil (10%) at a dose rate of 0.1 ml.kg^−1 (i.e. 100, 250, 500 and 1000 μg.kg^−1 of ivermectin and 10 mg.kg^−1 of fipronil).
# The formulations are as follows: […]
# The formulations were applied at one spot onto the skin between the shoulder blades.
# Blood samples were collected at intervals up to 56 days post treatment.
# The determination of ivermectin was carried out by HPLC after an automated solid/liquid extraction, using fluorescence detection, with limit of quantification of 100 pg.ml^−1. The determination of fipronil and its sulfone metabolite (RM1602) was carried out by HPLC with UV detection, with a limit of quantification of 20 ng.ml^−1 for fipronil and RM1602. Both methods were validated in terms of specificity, extraction recovery, linearity, precision and accuracy.
# [3] = Plasma kinetics of ivermectin after spot-on application 250 μg.kg^−1 in combination with fipronil to cats; type: in vivo, cat; conditions: spot-on 0.25% ivermectin + 10% fipronil, 5 cats
# Procedure: This study was undertaken in order to assess the pharmacokinetic behaviour of ivermectin after a topical (spot-on) application of a formulation containing 0.25% of ivermectin and 10% of fipronil to the cat. The formulation was as follows: […]
# Five male european cats were treed with the spot-on formulation at a dose of 0.1 ml.kg^−1 (i.e. 250 μg.kg^−1 of ivermectin and 10 mg.kg^−1 of fipronil).
# Blood samples were collected at intervals up to 42 days post-treatment.
# The determination of ivermectin in cat plasma was carried out by a validated HPLC method using fluorescence detection, with a limit of quantification of 100 pg.ml^−1.
# [4] = spot-on with fipronil, dogs, Group I 100 μg.kg^−1 ivermectin
# [5] = spot-on with fipronil, dogs, Group I 100 μg.kg^−1 ivermectin, range over dogs
# [6] = spot-on with fipronil, dogs, Group II 250 μg.kg^−1 ivermectin
# [7] = spot-on with fipronil, dogs, Group II 250 μg.kg^−1 ivermectin, range over dogs
# [8] = spot-on with fipronil, dogs, Group III 500 μg.kg^−1 ivermectin
# [9] = spot-on with fipronil, dogs, Group III 500 μg.kg^−1 ivermectin, range over dogs
# [10] = spot-on with fipronil, dogs, Group IV 1000 μg.kg^−1 ivermectin
# [11] = spot-on with fipronil, dogs, Group IV 1000 μg.kg^−1 ivermectin, range over dogs
substance,measurement,setting,value
ivermectin,"t½, Mean","[1]; 250 μg.kg ivermectin, harmonic mean",132 h
same,"AUC(0-t), Mean","[1]; 250 μg.kg ivermectin, mean",19218 pg·days/mL
same,"AUC(0-∞), Mean","[1]; 250 μg.kg ivermectin, mean",22842 pg·days/mL
same,"Tlast, Mean","[1]; 250 μg.kg ivermectin, mean",21 days
same,"tmax, Mean","[1]; 250 μg.kg ivermectin, mean",110 h
same,"Cmax, Mean","[1]; 0.1 ml.kg^−1 (250 μg.kg ivermectin), mean",1.618 ng/mL
same,difference in parameters of absorption (Cmax and AUC) between the two studies,"[2]; Example 7 versus Example 6, 250 μg.kg^−1 ivermectin spot-on, dogs",> 2 fold
same,plasma concentrations of ivermectin compared with Example 6,"[2]; same formulation (0.25% ivermectin, 10% fipronil), same dose 250 μg.kg^−1, dogs",much lower
same,"Cmax, Mean",[2]; Group I 100 μg.kg^−1 ivermectin,0.136 ng/mL
same,"Cmax, Mean",[2]; Group II 250 μg.kg^−1 ivermectin,0.508 ng/mL
same,"Cmax, Mean",[2]; Group III 500 μg.kg^−1 ivermectin,1.064 ng/mL
same,"Cmax, Mean",[2]; Group IV 1000 μg.kg^−1 ivermectin,1.802 ng/mL
same,"AUC (0-Clast), Mean",[2]; [4],382 pg·days/mL
same,"Tlast, Mean",[2]; [4],7 days
same,"tmax, Mean",[2]; [4],7 days
same,"AUC (0-Clast), Range",[2]; [5],[0-775] pg.d.ml^−1
same,"Cmax, Range",[2]; [5],[0-235] pg.ml^−1
same,"Tlast, Range",[2]; [5],[5-9] d
same,"tmax, Range",[2]; [5],[5-9] d
same,"t½, Mean",[2]; [6],9.8 (#) d
same,"AUC (0-Clast), Mean",[2]; [6],7808 pg·days/mL
same,"Tlast, Mean",[2]; [6],28 days
same,"tmax, Mean","[2]; spot-on with fipronil, dogs, Group II 250 μg.kg^−1 ivermectin, aberant value of 21 days not taken into account",4.5* d
same,"AUC (0-Clast), Range",[2]; [7],[4949-10019] pg.d.ml^−1
same,"Cmax, Range",[2]; [7],[250-723] pg.ml^−1
same,"tmax, Range",[2]; [7],[4-5] d
same,"t½, Range",[2]; [7],[6.4-35.0] d
same,"t½, Mean",[2]; [8],11.4 (#) d
same,"AUC (0-Clast), Mean",[2]; [8],17200 pg·days/mL
same,"Tlast, Mean",[2]; [8],37 days
same,"tmax, Mean",[2]; [8],5.7 days
same,"AUC (0-Clast), Range",[2]; [9],[9088-23274] pg.d.ml^−1
same,"Cmax, Range",[2]; [9],[410-572] pg.ml^−1
same,"tmax, Range",[2]; [9],[3-7] d
same,"t½, Range",[2]; [9],[9.0-16.5] d
same,"t½, Mean",[2]; [10],10.2 (#) d
same,"AUC (0-Clast), Mean",[2]; [10],29711 pg·days/mL
same,"Tlast, Mean",[2]; [10],40 days
same,"tmax, Mean",[2]; [10],3.3 days
same,"AUC (0-Clast), Range",[2]; [11],[16759-39734] pg.d.ml^−1
same,"Cmax, Range",[2]; [11],[1669-1966] pg.ml^−1
same,"tmax, Range",[2]; [11],[2-5] d
same,"t½, Range",[2]; [11],[7.6-12.2] d
same,mean AUC(0-Clast),"[2]; spot-on with fipronil, dogs, dose of 250 μg.kg^−1",7808 pg·days/mL
same,"t1/2 β, Mean","[3]; 250 μg.kg^−1 ivermectin, harmonic mean",9.1 d and 9.07* d
same,"AUC (0-Clast), Mean","[3]; 250 μg.kg^−1 ivermectin, mean",23441 pg·days/mL
same,"AUC(0-∞), Mean","[3]; 250 μg.kg^−1 ivermectin, mean",26546 pg·days/mL
same,"Tlast, Mean","[3]; 250 μg.kg^−1 ivermectin, mean",35 days
same,"tmax, Mean","[3]; 250 μg.kg^−1 ivermectin, mean",134 h
same,"AUC(0-∞), Range","[3]; 250 μg.kg^−1 ivermectin, range over cats",[14199-52232] pg.d.ml^−1
same,"Cmax, Mean","[3]; 0.1 ml.kg^−1 (250 μg.kg^−1 ivermectin), mean",1.465 ng/mL
